In US7238689B2, “Isoxazoline derivative and herbicide comprising the same as active ingredient” (Ihara Chemical Industry Co., Ltd., priority 2001, dated 2007):

What was measured:
Assay type in all cases: in vivo
Design in all cases: scale not given here
[1] = test system: Setaria viridis (L.) Beauv.; test: Herbicidal effect by upland field soil treatment; conditions: active ingredient 1000 g/ha, examined at 21st day from treatment
Description: (§1) An upland field soil was filled in a plastic pot of 80 cm^2. Seeds of Echinochloa crus-galli (L.) Beauv. var. crusgalli and Setaria viridis (L.) Beauv. were sowed, followed by covering with the same soil. […] Then, breeding was made in a greenhouse, and the herbicidal effect of each wettable powder was examined at the 21st day from the treatment in accordance with the standard shown in Table 21.

[2] = test system: Echinochloa crus-galli (L.) Beauv. var. crusgalli; test: Herbicidal effect by upland field soil treatment; conditions: active ingredient 1000 g/ha, examined at 21st day from treatment
Description: as §1

[3] = test system: Echinochloa oryzicola Vasing; test: Herbicidal effect by paddy field soil treatment; conditions: wettable powder, active ingredient 1000 g/ha, examined at the 21st day from the treatment
Protocol: (§2) A paddy field soil was filled in a plastic pot of 100 cm^2 and subjected to puddling. Then, seeds of Echinochloa oryzicola Vasing and Monochoria vaginalis (Murm. f.) Presl var. plantaginea (Roxb.) Solms-Laub. were sowed and water was filled in a depth of 3 cm. Next day, wettable powders produced in accordance with the Formulation 1 were diluted with water and dropped on the water surface. The application amount of each wettable powder was 1,000 g per 1 hectare in terms of the active ingredient. Then, breeding was made in a greenhouse, and the herbicidal effect of each wettable powder was examined at the 21st day from the treatment in accordance with the standard shown in Table 21.

[4] = test system: Monochoria vaginalis (Murm. f.) Presl var. plantaginea (Roxb.) Solms-Laub.; test: Herbicidal effect by paddy field soil treatment; conditions: wettable powder, active ingredient 1000 g/ha, examined at the 21st day from the treatment
Protocol: as §2

| Structure (SMILES) | herbicidal effect (index per standard of Table 21), Setaria viridis (L.) Beauv. [1] | herbicidal effect (index per standard of Table 21), Echinochloa curs-galli (L.) Beauv. Var. crus-galli [2] | Herbicidal effect index, Echinochloa oryzicola Vasing [3] | Herbicidal effect index, Monochoria vaginalis (Burm. F.) Presl var. plantaginea (Roxb.) Solms-Laub. [4] |
| --- | --- | --- | --- | --- |
| CC1(C)CC(S(=O)(=O)Cc2c(C(F)(F)F)nn(CS(C)(=O)=O)c2Cl)=NO1 [3-0130] | 5 | 5 | 5 | 5 |
| CC1(C)CC(S(=O)(=O)Cc2c(Cl)nn(CS(C)(=O)=O)c2C(F)(F)F)=NO1 [3-0131] | 5 | 5 | 5 | 5 |
| CC1(C)CC(S(=O)(=O)Cc2c(C(F)(F)F)nn(CC#N)c2Cl)=NO1 [3-0134] | 5 | 5 | 5 | 5 |
| CC1(C)CC(S(=O)(=O)Cc2c(Cl)nn(CC#N)c2C(F)(F)F)=NO1 [3-0135] | 5 | 5 | 5 | 5 |
| CCOC(=O)Cn1nc(Cl)c(CS(=O)(=O)C2=NOC(C)(C)C2)c1C(F)(F)F [3-0137] | 5 | 5 | 5 | 5 |
| CC1(C)CC(S(=O)(=O)Cc2c(Cl)nn(CC(N)=O)c2C(F)(F)F)=NO1 [3-0139] | 5 | 5 | 5 | 5 |
| CC1(C)CC(S(=O)(=O)Cc2c(C(F)(F)F)nn(-c3ccccc3)c2C(F)(F)F)=NO1 [3-0153] | 5 | 5 | 5 | 5 |
| CCOc1c(CS(=O)(=O)C2=NOC(C)(C)C2)c(C(F)(F)F)nn1-c1ccccc1 [3-0156] | 5 | 5 | 5 | 5 |
| CC1(C)CC(S(=O)(=O)Cc2c(C(F)(F)F)nn(-c3ncccn3)c2Cl)=NO1 [3-0173] | 5 | 5 | 5 | 5 |
| COc1cc(OC)nc(-n2nc(C(F)(F)F)c(CS(=O)(=O)C3=NOC(C)(C)C3)c2Cl)n1 [3-0174] | 5 | 5 | 5 | 5 |
| CCC1(C)CC(S(=O)(=O)Cc2c(C(F)(F)F)nn(C)c2Cl)=NO1 (centres unmarked) [3-0180] | 5 | 5 | 5 | 5 |
| Cc1onc(-c2ccccc2)c1CS(=O)(=O)C1=NOC(C)(C)C1 [4-0007] | 5 | 5 | 5 | 5 |
| CCOc1snc(C)c1CS(=O)(=O)C1=NOC(C)(C)C1 [4-0008] | 5 | 5 | 5 | 5 |
| CCOc1c(C)nn(-c2ccccc2)c1CS(=O)(=O)C1=NOC(C)(C)C1 [5-0005] | 4 | 5 | 5 | 5 |
| Cc1nn(-c2ccccc2)c(CS(=O)(=O)C2=NOC(C)(C)C2)c1OC(F)F [5-0006] | 5 | 5 | 5 | 5 |
| CC1(C)CC(S(=O)(=O)Cc2nn(-c3ccccc3)cc2OC(F)F)=NO1 [6-0003] | 5 | 5 | 5 | 5 |
| CC1(C)CC(S(=O)(=O)Cc2ccc[n+]([O-])c2)=NO1 [7-0004] | 4 | 5 | 5 | 5 |
| CC1(C)CC(S(=O)(=O)Cc2nc(-c3ccccc3)no2)=NO1 [9-0006] | 4 | 5 | 5 | 5 |
| CC1(C)CC(S(=O)(=O)Cc2sc3ccccc3c2Cl)=NO1 [10-0003] | 5 | 5 | 5 | 5 |
| CC1(C)CC(S(=O)(=O)Cn2nnc3ccccc32)=NO1 [10-0004] | 5 | 5 | 5 | 5 |
| Cn1ncc2c(CS(=O)(=O)C3=NOC(C)(C)C3)cccc21 [10-0005] | 5 | 5 | 5 | 5 |
| CC1(C)CC(S(=O)(=O)Cc2nc3ccccc3s2)=NO1 [10-0006] | 4 | 5 | 5 | 5 |
| CC1(C)CC(S(=O)(=O)Cc2nc3ccccc3o2)=NO1 [10-0009] | 5 | 5 | 5 | 5 |
| CC1(C)CC(S(=O)(=O)Cc2cc3ccccc3o2)=NO1 [10-0012] | 4 | 5 | 5 | 5 |
| Cc1cc2cccc(CS(=O)(=O)C3=NOC(C)(C)C3)c2o1 [10-0013] | 5 | 5 | 5 | 5 |
| CC1(C)CC(S(=O)(=O)Cc2oc3ccccc3c2Br)=NO1 [10-0014] | 5 | 5 | 5 | 5 |
| CC1(C)CC(S(=O)(=O)Cc2cccc3ccsc23)=NO1 [10-0015] | 5 | 5 | 5 | 5 |
| Cn1ncc2cccc(CS(=O)(=O)C3=NOC(C)(C)C3)c21 [10-0016] | 4 | 5 | 5 | 5 |
| Cc1c(CS(=O)(=O)C2=NOC(C)(C)C2)oc2ccccc12 [10-0017] | 5 | 5 | 5 | 5 |
